Measured values published in US6652861B1, “Anti-HIV and anti-tumor peptides and truncated polypeptides of MAP30” (priority 1999, dated 2003).
Where “and” joins values, the source holds several entries; their conditions need not be identical. Equal values may be shown once. Entries after “also recorded” stand apart in the source; their conditions may differ.

B1: MAP30: Momordica Anti-HIV Protein 30 kDa, native full-length, SEQ ID NO:1, from bitter melon (protein, listed as Momordica charantia)
chain: DVNFDLSTATAKTYTKFIEDFRATLPFSHKVYDIPLLYSTISDSRRFILLDLTSYAYETISVAIDVTNVYVVAYRTRDVSYFFKESPPEAYNILFKGTRKITLPYTGNYENLQTAAHKIRENIDLGLPALSSAITTLFYYNAQSAPSALLVLIQTTAEAARFKYIERHVAKYVATNFKPNLAIISLENQWSALSKQIFLAQNQGGKFRNPVDLIKPTGERFQVTNVDSDVVKGNIKLLLNSRASTADENFITTMTLLGESVVN

Assays:
HIV-1(IIIB) = experiment: Anti-HIV assay: p24 expression in HIV-infected MT-4 T lymphocytes; assay type: cell-based; conditions: for EC50 / EC50 anti-HIV, p24 / EC100 anti-HIV, p24 (complete inhibition of HIV-1) / EC100 anti-HIV, p24 (molar): HIV-1 infected MT4 lymphocytes; for fold more potent than N-9 in terms of molar concentration at EC50 / fold more potent than N-9 in terms of weight per volume: anti-HIV p24, MT4; for concentration of complete inhibition of p24 expression (FIG. 9): p24 ELISA of HIV-infected MT4 culture supernatant
Description: Anti-HIV activity was assayed by inhibition on viral core protein, p24 expression in HIV-infected MT-4 T lymphocytes by RIA as described previously (World Health Organization (1992); Bourinbaiar et al (1995)). Briefly, the cells were plated in duplicated in 96-well microtiter plates at 1×10^5 cells/ml in the presence of serial 10-fold dilution of MAP30, or GAP31 or NP-9 at concentrations from […]. The cells were then infected with HIV-1(IIIB) at 100 infectious units per cell. The culture supernatants were collected on day 3 and were used for p24 assay using ELISA kit from Coulter (Hialeah, Fla.). Duplicates of original viral inoculum in the same volume of the medium without the target cells and incubated for 3 days were used as blanks. The blank values were subtracted from wells in which virus was propagated in host MT4 cells with or without drugs.

[1] = system: endoproteinase Lys-C and Glu-C (V8); experiment: Resistance to limited proteolysis with Lys-C and V8 (SDS-PAGE); conditions: Lys-C or V8, up to 24 hr
Description: MAP30 and GAP31 were subjected to proteolysis with sequencing grade endoproteinase Lys-C and Glu-C (Promega, Madison, Wis.). Lys-C cleaves at the carboxylic side of lysine (Elliott et al., 1986). Glu-C, also known as V8 protease, cleaves specifically at the carboxylic side of glutamic acid in the presence of ammonium ion (Drapeau et al., 1972). In the absence of ammonium ion, Glu-C acts at both aspartic and glutamic acids. The reaction buffers for Lys-C and V8 were 25 mM Tris-HCl, pH 7.8, 1 mM EDTA and 50 mM ammonium bicarbonate, pH 7.8 respectively.
FIGS. 1A-1D show time course SDS-PAGE patterns of Lys-C and V8 digestions of MAP30 and GAP31. Three major fragments were produced in each case. These fragments are designated MLF25, MLF21, MLF0.8 (MAP30 Lys-C Fragments of 25, 21, and 0.8 kDa, FIG. 1A), MVF25, MVF21, MVF0.8 (MAP30 V8 Fragments of 25, 21, and 0.8 kDa, FIG. 1B), GLF26, GLF22, GLF0.6 (GAP31 Lys-C Fragments of 26, 22 and 0.6 kDa, FIG. 1C), and GVF26, GVF22, GVF0.6 (GAP31 V8 Fragments of 26, 22 and 0.6 kDa, FIG. 1D). The smaller peptides are C-terminal fragments produced during proteolysis and they are sensitive to further digestion to short peptides.

HSV-2 = experiment: Anti-HSV assay by ELISA in WI-38 cells; assay type: cell-based
Description: Anti-HSV activity was assayed with HSV-2 by ELISA (Meridian Diagnostics, Inc., Cincinnati, Ohio) as reported previously (Bourinbaiar et al (1996)). Human embryonic lung fibroblast cell line WI-38, (CCL-75, from ATCC, Rockville, Md.) was used as target cells. HSV-2 (VR-734, strain G) derived from a human with the genital infection was obtained from ATCC, Rockville, Md.

human spermatozoa [2] = experiment: Sperm motility by counting; assay type: cell-based; conditions: for effect on sperm motility at the antiviral EC100 concentrations: 0.01 to 0.1 μg/ml; for spermicidal activity / motility inhibition over the entire concentration ranges tested: 0.1 to 100 μg/ml
Description: Ten semen samples were randomly obtained form ten donors at the Andrology laboratory of the Department of Obstetrics and Gynecology at NYU Medical Center. All specimens were normal semen samples according to WHO guidelines. Each sample consisted of greater than or equal to 20 million motile sperm per milliliter. Sperm count and motility were determined by placing the sperm on a hackler chamber and assessing the samples under a 40× power microscopic field.
Each semen sample was washed two consecutive times in Ham's F-10 media. The washed sperm was spun to a pellet and then re-suspended in media to a concentration of 40 million spermatocytes per milliliter with at least 50% motility. Five microliters of sperm were then suspended in 100 microliters each of PBS, serial 10-fold dilutions of MAP30, or GAP31 or N-9 from 100 to 0.1 microg/ml. N-9 was used as a positive control. Motility and forward progression were assessed at each log concentration of the three compounds. The exposure time ranged form five minute to two hours.

human spermatozoa [3] = experiment: Sperm vitality by eosin Y/nigrosine staining; assay type: cell-based; conditions: vital stain
Description: The vitality staining was carried out by adding two drops of eosin Y to one drop of sperm sample and mixing for ten seconds. Two drops of nigrosine were then added to this mixture, and the solutions as mixed for 30 seconds. Slides were made from one drop of each solution mixed with MAP30, or GAP31, or N-9.

Molecule | EC50 (HIV-1(IIIB)) [nM] | EC50 anti-HIV, p24 (HIV-1(IIIB)) [µg/mL] | EC100 anti-HIV, p24 (complete inhibition of HIV-1) (HIV-1(IIIB)) | EC100 anti-HIV, p24 (molar) (HIV-1(IIIB)) [nM] | fold more potent than N-9 in terms of molar concentration at EC50 (HIV-1(IIIB)) | fold more potent than N-9 in terms of weight per volume (HIV-1(IIIB)) | concentration of complete inhibition of p24 expression (FIG. 9) (HIV-1(IIIB)) [microgram/ml] | resistance to proteolysis [1] | EC100 for HSV-2 (complete inhibition) (HSV-2) [µg/mL] | inhibition of sperm motility at 100 μg/ml (human spermatozoa [2]) | effect on sperm motility at the antiviral EC100 concentrations (human spermatozoa [2]) | spermicidal activity / motility inhibition over the entire concentration ranges tested (human spermatozoa [2]) | sperm vitality after treatment (human spermatozoa [3]) | concentration of complete inhibition of sperm motility (FIG. 7) (human spermatozoa [2]) [micrograms/ml] | inhibition in motility at 10 μg/ml (human spermatozoa [2]; 10 μg/ml, relative to PBS as 100% motility, mean ± SEM) [%] | EC50 spermicidal activity (human spermatozoa [2]; 50% inhibition of sperm motility) [µg/mL] | EC100 spermicidal activity (human spermatozoa [2]; 100% inhibition of sperm motility) [µg/mL] | inhibition on sperm motility at the antiviral EC100 concentrations (human spermatozoa [2]; N-9 at 10 μg/ml and 50 μg/ml) [%]
GAP31: Gelonium Anti-HIV Protein 31 kDa, native full-length, SEQ ID NO:2, from Gelonium multiflorum | 0.3 | 0.001 | 0.1 µg/mL | 3.3 | about 540 fold | about 100 fold | 0.1 | no proteolysis was detected up to 24 hr of treatment even at as much as 5% (W/W) of enzyme | 0.1 | only marginal effect | no significant effect on sperm motility | little spermicidal activity; also recorded: little inhibition | remained vital and impermeable to the pink dye; also recorded: not toxic to the spermatozoa | – | – | – | – | –
Nonoxynol-9 [Fragment N-9, reference compound] | 162 | 0.1 | 10 µg/mL | 16200 | – | – | 10 | – | 50 | totally inhibited | – | – | potent spermicidal effect; also recorded: all sperm wimples were dead | 100 | 43±5 | 20 | 100 | 50 to 80
B1 | 0.3 | 0.001 | 0.1 µg/mL and 0.08 µg/mL | 3.3 | about 540 fold | about 100 fold | 0.1 | no proteolysis was detected up to 24 hr of treatment even at as much as 5% (W/W) of enzyme | 0.01 | only marginal effect | no significant effect on sperm motility | little spermicidal activity; also recorded: little inhibition | remained vital and impermeable to the pink dye; also recorded: Identical results | – | – | – | – | –
